What was measured:
[1] = system: P-gp (human MDR1); experiment: in vitro; conditions: dog
[2] = cited from earlier work; for Kp,uu,brain in vivo: Göttingen minipig
[3] = target: T1, Bovine Serum Albumin (BSA) (Bos taurus, UniProt P02769); experiment: Fraction unbound in 35 μM BSA, equilibrium dialysis; conditions: for fraction unbound at 5 h, 1 μM: bovine; for Predicted fu (%) BSA 35 μM (D = 20): calculated with Eq. 2 from fu measured in 100% matrices (ref 20), dilution factor 20
[4] = Fraction unbound in 20-fold diluted brain homogenate, equilibrium dialysis; conditions: for fraction unbound at 5 h, 1 μM: Göttingen, minipig, pH 7.4; for Predicted fu (%) Brain (D = 20): calculated with Eq. 2 from fu measured in 100% matrices (ref 20), dilution factor 20
[5] = system: P-gp (human MDR1); experiment: Equilibrium distribution study (in vitro Kp,brain / Kp,uu,brain) across MDCKII-MDR1 cells, BSA apical, brain homogenate basolateral, Uni-L and Bi-L; conditions: dog; for Kp at 29 h, 1 μM: brain homogenate/BSA ratio
[6] = target: T1, Bovine Serum Albumin (BSA); experiment: Fraction unbound in 700 μM BSA in phosphate buffer; assay type: in vitro ADME; set-up: BSA (purity > 98%) was obtained from Beijing SeaskyBio Technology Co. Ltd; purchased Beijing SeaskyBio Technology Co. Ltd. BSAS (Lot 541); conditions: read-out: fu, 700 μM BSA
[7] = system: MDCKII-MDR1 cell line; set-up: method as in PMID 34756975, PMID 15236458; conditions: cited from earlier work
[8] = MDCK-MDR1, pH 7.4, with an inhibitor present (name and concentration not stated)
[9] = 20-fold diluted brain homogenate
[10] = MDCK-MDR1, pH 7.5, in vitro determined Kp,brain Bi-L, Bi-L (compound loaded both sides), 29 h
[11] = MDCK-MDR1, pH 7.5, in vitro determined Kp,brain Uni-L, Uni-L (compound loaded apically in BSA), 29 h
[12] = pH 7.5, Recovery Bi-L, mass balance Eq. 7, Bi-L, 29 h, % printed
[13] = pH 7.5, Recovery Uni-L, mass balance Eq. 6, Uni-L, 29 h, % printed
[14] = pH 7.5, assay recovery, equilibrium distribution experiment, setup (Uni-L/Bi-L) not given

T1 sequence (P02769 25-607): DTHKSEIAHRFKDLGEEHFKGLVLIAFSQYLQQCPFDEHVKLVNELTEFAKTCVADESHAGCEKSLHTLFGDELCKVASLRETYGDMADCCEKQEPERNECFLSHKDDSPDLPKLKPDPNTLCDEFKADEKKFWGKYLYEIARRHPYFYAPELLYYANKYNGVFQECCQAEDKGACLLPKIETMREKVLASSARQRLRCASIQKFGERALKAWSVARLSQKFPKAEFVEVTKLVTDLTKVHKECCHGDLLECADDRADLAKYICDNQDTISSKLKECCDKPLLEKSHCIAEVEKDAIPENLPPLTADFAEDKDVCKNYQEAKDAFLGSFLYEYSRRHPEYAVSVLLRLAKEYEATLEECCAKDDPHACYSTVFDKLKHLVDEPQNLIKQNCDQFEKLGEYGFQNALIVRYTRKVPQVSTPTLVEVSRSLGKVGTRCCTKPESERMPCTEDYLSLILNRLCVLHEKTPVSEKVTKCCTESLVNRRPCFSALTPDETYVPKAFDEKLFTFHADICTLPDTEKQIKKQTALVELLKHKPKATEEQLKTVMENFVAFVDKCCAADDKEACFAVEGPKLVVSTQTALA

Compound | Papp B→A at 60 min, 0.5 μM ([1]; MDCK-MDR1, pH 7.4) [×10⁻⁶ cm/s] | efflux ratio at 60 min, 0.5 μM ([1]; MDCK-MDR1, pH 7.4) | Papp A→B at 60 min, 0.5 μM [1, 8] [×10⁻⁶ cm/s] | Papp B→A at 60 min, 0.5 μM [1, 8] [×10⁻⁶ cm/s] | classification of brain penetration in vivo ([2]; Göttingen minipig Kp,uu,brain) | Kp,uu,brain in vivo [2] | fraction unbound at 5 h, 1 μM ([3]; 35 μM BSA) | Predicted fu (%) BSA 35 μM (D = 20) [3] [%] | fraction unbound at 5 h, 1 μM [4, 9] | Predicted fu (%) Brain (D = 20) [4] [%] | Kp at 29 h, 1 μM [5, 10] | Kp at 29 h, 1 μM [5, 11] | recovery at 29 h, 1 μM [5, 12] [%] | recovery at 29 h, 1 μM [5, 13] [%] | recovery at 29 h, 1 μM [5, 14] [%] | fraction unbound at 5 h, 1 μM ([3]; isolated protein) | fraction unbound at 5 h, 1 μM ([4]; brain homogenate) | fraction unbound at 5 h, 1 μM [6] | Kp uu at 29 h, 1 μM ([5]; MDCK-MDR1, pH 7.5) | mannitol flux [7]
Clc1ccc2c(c1)N=C(N1CCNCC1)c1ccccc1N2 [N-desmethylclozapine] | 4.4 ± 0.3 | 2.1 | 3.6 | 2.9 | unrestricted (unrestricted brain penetration with Kp,uu,brain > 0.7) | 0.71 | 0.892 ± 0.029 | 82.1 | 0.131 ± 0.006 | 13.9 | 4.2 | 4.2 | 53 | 62 | ~50 | – | – | – | – | –
NCC1(CC(=O)O)CCCCC1 [Gabapentin, gabapentin] | 1.6 ± 0.2 | 0.5 | – | – | – | 0.13 | – | 99.8 | – | 93.4 | 0.9 | 0.11 | 86 | 85 | – | 0.984 ± 0.062 | 0.946 ± 0.015 | – | – | –
CCN(CC)CCNC(=O)c1cc(Cl)c(N)cc1OC [Metoclopramide, metoclopramide] | 49 ± 3 | 2 | – | – | – | – | > 1 | 98.8 | 0.878 ± 0.038 | 90.7 | 0.96 | 1 | 66 | 66 | – | – | – | 0.904 | – | –
COc1ccc2c(c1)c(CC(=O)O)c(C)n2C(=O)c1ccc(Cl)cc1 [Indomethacin, indomethacin] | 2.7 ± 0.3 | – | – | – | – | 0.13 | – | – | 0.358 ± 0.08 | 42.8 | 0.78 | 0.88 | 69 | 73 | – | – | – | – | ≥ 1 | –
CNCCC(Oc1ccc(C(F)(F)F)cc1)c1ccccc1 (stereo not drawn) [Fluoxetine, fluoxetine] | – | – | – | – | – | – | 0.66 ± 0.032 | 70.6 | 0.052 ± 0.005 | 5.7 | – | – | – | – | – | – | – | – | – | –
OC[C@@H](O)[C@@H](O)[C@H](O)[C@H](O)CO [mannitol] | – | – | – | – | – | – | – | – | – | – | – | – | – | – | – | – | – | – | – | 1–7 10^–7 cm/s
O=C(c1ccc(F)cc1)C1CCN(CCn2c(=S)[nH]c3ccccc3c2=O)CC1 [Altanserin] | 3.4 ± 0.3 | 1.1 | – | – | – | 0.85 | 0.451 ± 0.035 | 26.8 | 0.229 ± 0.014 | 22.1 | 1.49 | 1.48 | 17 | 18 | ~20 | – | – | – | – | –

Source: PMC10809502, “Application of a new MDCKII-MDR1 cell model to measure the extent of drug distribution in vitro at equilibrium for prediction of in vivo unbound brain-to-plasma drug distribution” (Fluids and Barriers of the CNS, 2024)
